Patent US10722500B2, “Gossypol 7-N-isatin Schiff base compounds with antitumor activities and a method of preparing the same” (SHAANXI PANLONG PHARMACEUTICAL GROUP LIMITED BY SHARE LTD., priority 2018, dated 2020)
Read-outs that look alike come from different tables or passages of the source.

Tests used:
[1] = system: human hepatoma cells (HepG2); assay: MTT tumor cell proliferation inhibition test, HepG2; assay type: cell-based; settings: read-out: Half Inhibitory Concentration IC50 HepG2
Experimental: (§1) The compounds of the present invention were subjected to tumor cell proliferation inhibition test, and conventional MTT method was used.
(§2) Cell lines: human hepatoma cells (HepG2), human lung cancer cells (A-549), human gastric cancer cells (SGC-7901). The culture medium was DMEM+15% NBS+double antibody.
(§3) Sample solution preparation: after dissolving with DMSO (Merck), PBS (−) was added to obtain 100 μmol/L solution or homogeneous suspension. The solution was diluted with PBS (−) in DMSO to a final concentration of 0.1, 1, 10, 20, 40, 60, 80, 100 μmol/L.
(§4) Gossypol was used as control solution, prepared under the same condition.
(§5) Cell culture: adherent growth Tumor cells were cultured in 1640 medium containing 10% inactivated neonatal bovine serum and penicillin, streptomycin (1 million U/L), placed in carbon dioxide incubator at 37° C., 5% CO2, and saturated humidity. Cells were treated serially passaged 2-3 times. The first culture was washed with PBS 2 times, and digested with trypsin. Fresh culture medium was added evenly, cells were adjusted to a appropriate concentration and transferred into a new culture flask. Cell in an exponential phase were chosen for the tests.
(§6) MTT Assay for Cell Viability and IC50 Determination
(§7) Experimental Principle: Living cells mitochondria in the dehydrogenase can reduce yellow MTT to water-insoluble blue-violet product MT (MTT formazan), deposited in the cells. The amount of production is proportional to the number of living cells. […] DMSO can dissolve blue violet crystals, and the color depth is proportional to the amount contained, so the absorbance measured by the microplate reader can reflect the cell viability.
(§8) Methods: The exponential phase cells were digested and counted and seeded in 96-well plates at a density of 2×10^4/mL at 100 μl per well. After 24 hours of incubation, the cells to be tested were treated with 0.1, 1, 10, 20, 40, 60, 80, 100 μmol/L of the compounds. Each experimental group had 5 wells in each concentration, and the culture medium containing 0.4% DMSO was used as control. After 48 hours, the supernatant was discarded, and 100 μl of MTT ((2-(4,5-dimethyl-2-thiazolyl)-3,5-diphenyl-2H-[…]) (1 mg/mL) was added to each well. After another 4 hours, the supernatant was discarded, and 100 μl of DMSO was added to each well. After mixing, the absorbance was measured at 570 nm using a microplate reader. An IC50 calculation software was used to determine the half inhibitory concentration (IC50).

[2] = system: human lung cancer cells (A-549); assay: MTT tumor cell proliferation inhibition test, A-549; assay type: cell-based; settings: A549 cells, 48 hours treatment, read-out: Half Inhibitory Concentration IC50 A549
Experimental: as §1, §2, §3, §4, §5, §6, §7, §8

[3] = system: human gastric cancer cells (SGC-7901); assay: MTT tumor cell proliferation inhibition test, SGC-7901; assay type: cell-based; settings: SGC-7901 cells, 48 hours treatment, read-out: Half Inhibitory Concentration IC50 SGC-7901
Experimental: as §1, §2, §3, §4, §5, §6, §7, §8

[4] = system: HepG2, A-549, SGC-7901 tumor cells; assay: MTT tumor cell proliferation inhibition test, summary over the three cell lines; assay type: cell-based, human; settings: the three cell lines tested
Experimental: as §1, §2, §3, §4
as §5, with “Cell in an exponential phase were chosen for the tests.” left out
as §7, with “the” for “the cells. The amount of production is proportional to the number of living”
as §8, with “After 24 hours of incubation, the cells to be tested were treated with 0.1, 1, 10, 20, 40, 60, 80, 100 μmol/L of the compounds. Each experimental group had 5 wells in each concentration, and the culture medium containing 0.4% DMSO was used as control.” left out

[5] = HepG2 cells, MTT, 48 hours treatment

SMILES | IC50 [1, 5] [µM] | IC50 [2] [µM] | IC50 [3] [µM] | melting point [°C] | antitumor activities (in words) [4] | IC50 ([1]; HepG2, 48 h) [µM]
Cc1cc2c(C(C)C)c(O)c(O)c(/C=N/N=C3\C(=O)Nc4ncccc43)c2c(O)c1-c1c(C)cc2c(C(C)C)c(O)c(O)c(/C=N/N=C3/C(=O)Nc4ncccc43)c2c1O [Compound 1, (3Z,3′E)-3,3′-(((1E,1′E)-(1,1′,6,6′,7,7′-hexahydroxy-5,5′-diisopropyl-3,3′-dimethyl-[2,2′-binaphthalene]-8,8′-diyl)bis(methanylylidene))bis(hydrazine-2,1-diylidene))bis(1,3-dihydro-2H-pyrrolo[2,3-b]pyridin-2-one)] | > 100 | > 100 | > 100 | 186.5 |  | 
Cc1cc2c(C(C)C)c(O)c(O)c(/C=N/N=C3\C(=O)N(Cc4ccccc4)c4ncccc43)c2c(O)c1-c1c(C)cc2c(C(C)C)c(O)c(O)c(/C=N/N=C3/C(=O)N(Cc4ccccc4)c4ncccc43)c2c1O [Compound 5, (3Z,3′E)-3,3′-(((1E,1′E)-(1,1′,6,6′,7,7′-hexahydroxy-5,5′-diisopropyl-3,3′-dimethyl-[2,2′-binaphthalene]-8,8′-diyl)bis(methanylylidene))bis(hydrazine-2,1-diylidene))bis(1-benzyl-1,3-dihydro-2H-pyrrolo[2,3-b]pyridin-2-one)] | 7.94 ± 0.85 | 10.1 ± 1.33 | 12.3 ± 1.43 |  | excellent antitumor activities | 
Cc1cc2c(C(C)C)c(O)c(O)c(C=O)c2c(O)c1-c1c(C)cc2c(C(C)C)c(O)c(O)c(C=O)c2c1O [Gossypol] |  |  |  |  |  | 955 ± 0.41
Cc1cc2c(C(C)C)c(O)c(O)c(/C=N/N=C3\C(=O)N(C)c4ncccc43)c2c(O)c1-c1c(C)cc2c(C(C)C)c(O)c(O)c(/C=N/N=C3/C(=O)N(C)c4ncccc43)c2c1O [Compound 2, (3Z,3′E)-3,3′-(((1E,1′E)-(1,1′,6,6′,7,7′-hexahydroxy-5,5′-diisopropyl-3,3′-dimethyl-[2,2′-binaphthalene]-8,8′-diyl)bis(methanylylidene))bis(hydrazine-2,1-diylidene))bis(1-methyl-1,3-dihydro-2H-pyrrolo[2,3-b]pyridin-2-one)] | 12.5 ± 2.39 | 11.2 ± 2.26 | > 100 |  | good activities | 
CON1C(=O)/C(=N\N=C\c2c(O)c(O)c(C(C)C)c3cc(C)c(-c4c(C)cc5c(C(C)C)c(O)c(O)c(/C=N/N=C6/C(=O)N(OC)c7ncccc76)c5c4O)c(O)c23)c2cccnc21 [Compound 6, (3Z,3′E)-3,3′-(((1E,1′E)-(1,1′,6,6′,7,7′-hexahydroxy-5,5′-diisopropyl-3,3′-dimethyl-[2,2′-binaphthalene]-8,8′-diyl)bis(methanylylidene))bis(hydrazine-2,1-diylidene))bis(1-methoxy-1,3-dihydro-2H-pyrrolo[2,3-b]pyridin-2-one)] | > 100 | 62.9 ± 2.15 | > 100 | 201.9 |  | 
Cc1cc2c(C(C)C)c(O)c(O)c(/C=N/N=C3\C(=O)N(C(C)C)c4ncccc43)c2c(O)c1-c1c(C)cc2c(C(C)C)c(O)c(O)c(/C=N/N=C3/C(=O)N(C(C)C)c4ncccc43)c2c1O [Compound 4, (3Z,3′E)-3,3′-(((1E,1′E)-(1,1′,6,6′,7,7′-hexahydroxy-5,5′-diisopropyl-3,3′-dimethyl-[2,2′-binaphthalene]-8,8′-diyl)bis(methanylylidene))bis(hydrazine-2,1-diylidene))bis(1-isopropyl-1,3-dihydro-2H-pyrrolo[2,3-b]pyridin-2-one)] | > 100 | 74.1 ± 3.46 | > 100 | 209.1 |  | 
CCN1C(=O)/C(=N\N=C\c2c(O)c(O)c(C(C)C)c3cc(C)c(-c4c(C)cc5c(C(C)C)c(O)c(O)c(/C=N/N=C6/C(=O)N(CC)c7ncccc76)c5c4O)c(O)c23)c2cccnc21 [Compound 3, (3Z,3′E)-3,3′-(((1E,1′E)-(1,1′,6,6′,7,7′-hexahydroxy-5,5′-diisopropyl-3,3′-dimethyl-[2,2′-binaphthalene]-8,8′-diyl)bis(methanylylidene))bis(hydrazine-2,1-diylidene))bis(1-ethyl-1,3-dihydro-2H-pyrrolo[2,3-b]pyridin-2-one)] | 9.92 ± 0.79 | 17.4 ± 0.79 | 13.4 ± 1.51 |  | good activities | 
